Test systems include NCI-H460; OVCAR-4; SF-539; UACC-257; SF-295; IGROV-1; SK-OV-3; RXF 393; HCC 2998; SK-MEL-2; OVCAR-5; U-251; A549; TK-10; COLO 205; NCI-H522; SN12C; SR.
Experiment in all cases: NCI tumour cell line growth inhibition, 48 h

The structures appear in SMILES notation.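 48-hour exposure; five concentrations; linearly interpolated endpoints. GI50: concentration for 50% inhibition of growth.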 The source made the active and inactive calls. No stated cut-off is given here; in the data, active = GI50 up to about 1.1 µM and inactive = higher.

On to `CCCC(S(=O)(=O)c1ccccc1)S(=O)(=O)c1ccccc1`, for which the GI50 in the assay with NCI-H460 is > 100 µM (inactive); in the assay on OVCAR-4, > 100 µM (inactive); with SF-539, > 100 µM (inactive); in the assay with UACC-257 it was > 100 µM (inactive); in the assay with SF-295, 83.4 µM (inactive); with IGROV-1, > 100 µM (inactive). For the same compound, the GI50 in the assay with SK-OV-3, in the assay with RXF 393, in the assay on HCC 2998, in the assay with SK-MEL-2, in the assay with OVCAR-5 and in the assay on U-251 was > 100 µM (inactive) in each case. The GI50 with A549 and in the assay on TK-10 was > 100 µM (inactive) throughout.
Regarding `C[N+](C)(C)CC(=O)N/N=C(/C=C/c1ccccc1)CC1OC(=O)c2ccccc21` (centres undefined), the GI50 in the assay with NCI-H460 was > 100 µM (inactive); in the assay on OVCAR-4, > 100 µM (inactive); with SF-539, > 100 µM (inactive); in the assay on UACC-257 it was > 100 µM (inactive); in the assay on COLO 205, > 100 µM (inactive); with SF-295, > 10 µM (inactive). The GI50 with IGROV-1, with SK-OV-3, in the assay on RXF 393, in the assay on HCC 2998, in the assay with SK-MEL-2 and in the assay on NCI-H522 was > 100 µM (inactive) throughout. In addition, the GI50 was > 10 µM (inactive) in the assay on OVCAR-5; > 100 µM (inactive) in the assay with U-251; > 100 µM (inactive) in the assay with A549; > 100 µM (inactive) in the assay on TK-10; > 100 µM (inactive) in the assay on SN12C.
Consider `N#CC1=C(c2ccccc2)OC2(N)OC(c3ccccc3)=C(C#N)C12C#N` (centres undefined), for which the GI50 is > 100 µM (inactive) in the assay on NCI-H460; 60.3 µM (inactive) in the assay with OVCAR-4; > 100 µM (inactive) in the assay on SF-539; > 100 µM (inactive) in the assay with UACC-257; > 100 µM (inactive) in the assay with COLO 205; > 100 µM (inactive) in the assay on SF-295. Further, the GI50 in the assay on IGROV-1 is > 100 µM (inactive); in the assay on SK-OV-3 it was > 100 µM (inactive); in the assay with RXF 393 it was 69.3 µM (inactive); in the assay on HCC 2998, > 100 µM (inactive); in the assay on SK-MEL-2, > 100 µM (inactive); in the assay on OVCAR-5, > 100 µM (inactive). The GI50 in the assay with U-251, in the assay with A549, in the assay with TK-10 and in the assay with SN12C was > 100 µM (inactive) in each case.
`CCOc1ccc2c(c1)[n+]([O-])c(C(N)=O)c(N)[n+]2[O-]`: the GI50 in the assay with SR, in the assay with NCI-H460, with OVCAR-4, in the assay on SF-539, in the assay on UACC-257 and with COLO 205 was > 100 µM (inactive) in each case. The GI50 in the assay with SF-295, in the assay with IGROV-1, in the assay with SK-OV-3, in the assay on RXF 393, with SK-MEL-2 and with NCI-H522 was > 100 µM (inactive) throughout. The GI50 in the assay on OVCAR-5, in the assay on U-251, with A549 and with SN12C was > 100 µM (inactive) each time.
Turning to `COc1ccc(/C=c2/sc3n(c2=O)C(c2ccccc2)C2(O)CCCCC2N=3)cc1` (centres undefined), the GI50 in the assay with SR, with NCI-H460, with OVCAR-4, with UACC-257, with IGROV-1 and in the assay with HCC 2998 was > 12.5 µM (inactive) each time. Besides, the GI50 with SK-MEL-2, with NCI-H522, in the assay with OVCAR-5, with U-251, in the assay on A549 and with TK-10 was > 12.5 µM (inactive) each time.
As for `Cc1ccccc1C(C#N)/C(=N/NC(=O)c1cc2ccccc2cc1O)C(=O)Nc1cccc(Cl)c1` (centres undefined), the GI50 with SR is 12.6 µM (inactive); with NCI-H460, 28.7 µM (inactive); in the assay on OVCAR-4, 21.6 µM (inactive); in the assay with SF-539, 26.4 µM (inactive); in the assay on UACC-257, 20.7 µM (inactive); with COLO 205, 24.4 µM (inactive). Besides, the GI50 was 21.1 µM (inactive) in the assay on SF-295; 9.93 µM (inactive) in the assay with IGROV-1; 41.8 µM (inactive) in the assay on SK-OV-3; 28.8 µM (inactive) with HCC 2998; 22.5 µM (inactive) in the assay with SK-MEL-2; 20.9 µM (inactive) with NCI-H522. Moreover, the GI50 is 13.4 µM (inactive) with OVCAR-5; 25.6 µM (inactive) in the assay on U-251; 18 µM (inactive) in the assay with A549; 45.7 µM (inactive) in the assay with TK-10; 35.6 µM (inactive) with SN12C.
In the case of `CCOC(=O)[C@H]1Nc2ccc(O)cc2C2c3ccccc3CC21` (some centres undefined), the GI50 with NCI-H460 was > 100 µM (inactive); in the assay with OVCAR-4, 42.1 µM (inactive); in the assay on SF-539, > 100 µM (inactive); in the assay on UACC-257, 37.7 µM (inactive); with COLO 205, > 100 µM (inactive); in the assay with SF-295, > 10 µM (inactive). Also, the GI50 in the assay on IGROV-1 is > 100 µM (inactive); with RXF 393, 17.7 µM (inactive); in the assay on HCC 2998 it was 49 µM (inactive); with SK-MEL-2 it was > 100 µM (inactive); with NCI-H522 it was 61.7 µM (inactive); with OVCAR-5, > 100 µM (inactive). The GI50 with U-251 was 88.7 µM (inactive); in the assay on A549, 65.3 µM (inactive); with TK-10, > 100 µM (inactive); with SN12C, 87.1 µM (inactive).
With `Nc1nc2c(ncn2CCCC(c2ccccc2)P(=O)(O)O)c(=O)[nH]1` (centres undefined), the GI50 in the assay with NCI-H460, with SF-539, with UACC-257, with COLO 205, in the assay with SF-295 and with IGROV-1 was > 100 µM (inactive) throughout. Moreover, the GI50 with SK-OV-3, in the assay on HCC 2998, in the assay with SK-MEL-2, in the assay on NCI-H522, in the assay with OVCAR-5 and with U-251 was > 100 µM (inactive) in each case. The GI50 in the assay on A549, in the assay with TK-10 and in the assay on SN12C was > 100 µM (inactive) each time.
For the compound `O=c1[nH]cc(F)c(=O)n1C1OC(CO)C(O)C1O` (centres undefined), the GI50 with NCI-H460, with OVCAR-4, with UACC-257, in the assay on COLO 205, in the assay on SF-295 and with SK-OV-3 was > 100 µM (inactive) each time. The GI50 in the assay on RXF 393, with HCC 2998, in the assay with SK-MEL-2, in the assay with NCI-H522, in the assay on OVCAR-5 and with U-251 was > 100 µM (inactive) in each case. Moreover, the GI50 with A549, in the assay on TK-10 and with SN12C was > 100 µM (inactive) in each case.
On to `Cc1ccc(S(=O)(=O)C2CC2(Cl)Cl)cc1` (centres undefined), for which the GI50 was 50.1 µM (inactive) in the assay on NCI-H460; 0.0162 µM (active) in the assay with OVCAR-4; 31.4 µM (inactive) in the assay on SF-539; 21.2 µM (inactive) with UACC-257; 21.6 µM (inactive) in the assay on COLO 205; 38.6 µM (inactive) with SF-295. Further, the GI50 in the assay with IGROV-1 was 26.9 µM (inactive); in the assay with SK-OV-3 it was > 100 µM (inactive); in the assay on RXF 393, 15.1 µM (inactive); in the assay on HCC 2998, 44.4 µM (inactive); in the assay on SK-MEL-2 it was 33.2 µM (inactive); in the assay on NCI-H522, 12.5 µM (inactive). The GI50 was > 100 µM (inactive) in the assay on OVCAR-5; > 100 µM (inactive) in the assay on U-251; > 100 µM (inactive) in the assay with A549; > 100 µM (inactive) in the assay with TK-10; 18.7 µM (inactive) with SN12C.
As for `O=c1c(-c2ccccc2)c2oc(c1-c1ccccc1)CSCc1cccc(c1)CSC2`, the GI50 is 38.7 µM (inactive) in the assay on NCI-H460; 51.9 µM (inactive) in the assay with OVCAR-4; 22.7 µM (inactive) in the assay on SF-539; > 100 µM (inactive) in the assay on UACC-257; 49.1 µM (inactive) in the assay on COLO 205; 51.2 µM (inactive) in the assay with SF-295. For the same compound, the GI50 with IGROV-1 is 26.3 µM (inactive); in the assay on SK-OV-3 it was 25.1 µM (inactive); with RXF 393, 14.5 µM (inactive); in the assay on HCC 2998, 94.6 µM (inactive); with SK-MEL-2 it was > 100 µM (inactive); in the assay on NCI-H522 it was 39.6 µM (inactive). In addition, the GI50 with OVCAR-5 is > 100 µM (inactive); in the assay on U-251, 31 µM (inactive); in the assay with A549, 38.5 µM (inactive); with TK-10 it was 87.1 µM (inactive); in the assay on SN12C it was 49.1 µM (inactive).
Turning to `COc1cccc(C2C(C(=O)Nc3cc(=O)n(C)c(=O)n3C)=C(C)NC(C)=C2C(=O)Nc2cc(=O)n(C)c(=O)n2C)c1O`, the GI50 with NCI-H460, with OVCAR-4, in the assay with SF-539, in the assay on UACC-257, with COLO 205 and in the assay on SF-295 was > 100 µM (inactive) each time. Also, the GI50 with IGROV-1, with SK-OV-3, in the assay with RXF 393, with HCC 2998, with SK-MEL-2 and in the assay with NCI-H522 was > 100 µM (inactive) each time. In addition, the GI50 in the assay on OVCAR-5, in the assay with U-251, in the assay with A549, with TK-10 and in the assay with SN12C was > 100 µM (inactive) throughout.

The record behind these values is ChEMBL document CHEMBL1201862, “PubChem BioAssay data set” (2004).
